How the values were obtained:
[1] = system: Hh pathway readouts, stemness markers and growth genes in MB stem-like cells; assay: qRT-PCR of Hh, proliferation and stemness targets in MB stem-like cells; assay type: cell-based, mouse; details: 48 h
Experimental: Figure 5 Compound 12 inhibition of Hh-dependent MB tumor cell growth. […] (a and b) After the indicated times, a trypan blue count was performed to determine the growth rate of viable cells. (c) Gli1 mRNA expression levels were determined by qRT-PCR normalized to endogenous control (β2-microglobulin and HPRT). (d–f) Compound 12 inhibits MB-SCs self-renewal. (d) Suspension of single MB-SCs isolated from Ptch1^+/− mice were cultured in stem cell medium to allow the formation of primary neurospheres. Primary neurospheres were dissociated and treated with increasing concentrations of compound 12, Cyclopamine or DMSO only. After 7 days of treatment, the number of secondary neurospheres derived from a known number of single cells was counted. The self-renewal MB-SCs' capability is expressed as percentage of neurosphere-forming cells. […]
Total RNA was isolated with Trizol (Invitrogen/Life Technologies, Carlsbad, CA, USA) and reverse transcribed with SensiFAST cDNA Synthesis Kit (Bioline Reagents Limited, London, UK). Quantitative real-time PCR (Q-PCR) analysis of Gli1, Gli2, Ptch1, Bmp2, Pfkfb3, CycD1, CycD2, Pcna, Oct4, Nanog, β-2 microglobulin, β-actin and HPRT mRNA expression was performed on each cDNA sample using the VIIA7 Real Time PCR System employing Assay-on-Demand Reagents (Life Technologies). […]

[2] = system: human prostate carcinoma epithelial 22Rv1 cells; assay: Trypan blue growth count of 22Rv1 cells; assay type: cell-based; details: versus Cyclopamine, Vismodegib, LDE-225
Experimental: After the indicated times, a trypan blue count was performed to determine the growth rate. […] Results were normalized to endogenous control (β-actin and HPRT).
(§1) Cell proliferation was evaluated by BrdU detection (Roche, Welwyn Garden City, UK). Briefly, after the BrdU pulse (24 h for GCPs) cells were fixed with 4% paraformaldehyde and permeabilized with 0.2% Triton X-100, and BrdU detection was performed according to the manufacturer's instructions. Nuclei were counterstained with Hoechst reagent. At least 500 nuclei were counted in triplicate, and the number of BrdU-positive nuclei was recorded. To determine the growth rate of viable cells, a trypan blue count was performed after a treatment period of 24–48–72 h with studied compound.

murine Smo D477G = molecular target: T1, murine Smo D477G (Mus musculus, UniProt P56726, D477G); assay: Bodipy-Cyclopamine (BC) binding assay, HEK293T cells transfected with mouse Smo D477G
T1 construct: Flag; expressed in transfected cells; host or cells: HEK293T
T1 sequence (P56726 33-793 D477G): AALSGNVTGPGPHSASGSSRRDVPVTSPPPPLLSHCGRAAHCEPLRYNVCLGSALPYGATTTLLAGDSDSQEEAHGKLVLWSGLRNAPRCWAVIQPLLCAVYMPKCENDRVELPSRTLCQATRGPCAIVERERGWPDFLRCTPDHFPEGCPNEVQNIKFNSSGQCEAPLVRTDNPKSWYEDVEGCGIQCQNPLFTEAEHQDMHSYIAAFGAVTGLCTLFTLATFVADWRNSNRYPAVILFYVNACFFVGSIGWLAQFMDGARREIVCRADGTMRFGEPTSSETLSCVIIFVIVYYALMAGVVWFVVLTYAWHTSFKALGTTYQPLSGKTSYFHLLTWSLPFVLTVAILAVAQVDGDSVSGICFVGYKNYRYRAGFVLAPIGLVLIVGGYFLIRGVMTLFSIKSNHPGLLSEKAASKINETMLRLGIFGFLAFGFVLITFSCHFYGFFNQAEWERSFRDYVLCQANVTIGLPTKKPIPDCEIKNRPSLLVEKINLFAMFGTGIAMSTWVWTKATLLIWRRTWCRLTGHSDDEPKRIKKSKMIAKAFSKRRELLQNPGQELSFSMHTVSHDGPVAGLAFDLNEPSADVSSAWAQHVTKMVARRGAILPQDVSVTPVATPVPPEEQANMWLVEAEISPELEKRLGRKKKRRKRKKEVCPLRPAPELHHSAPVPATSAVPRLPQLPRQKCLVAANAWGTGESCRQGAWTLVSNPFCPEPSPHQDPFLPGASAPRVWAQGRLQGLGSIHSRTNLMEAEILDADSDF
Experimental: (§2) Cells were washed in PBS supplemented with 0.5% fetal bovine serum, fixed in 4% paraformaldehyde in phosphate-buffered saline (PBS) for 10 min, and incubated for 2 h at 37 °C both in the same medium supplemented with Bodipy-Cyclopamine (5 nM) and the studied compounds. The cells were permeabilized with Triton X100 (Sigma) 0.2%. Dako Fluorescent mounting (Dako, Carpinteria, CA, USA) was used as mounting medium and Hoechst reagent for staining of the cell nuclei. Bodipy (green) and Hoechst (blue) signals were analyzed in three to four representative fields per coverslip (× 20 magnification, 1000 cells/field). Data were expressed as percentage of BC incorporation observed with BC alone.[95]
BC binding (green) is visualized using fluorescence microscopy in a representative field (a). […] Quantitative data are the average BC intensity from five independent fluorescence microscopy images.

human Smo WT = molecular target: T2, human Smo WT (Homo sapiens, UniProt Q99835); assay: Bodipy-Cyclopamine (BC) binding assay, HEK293T cells transfected with human Smo WT; details: BC (5 nM) displacement, transiently transfected 293T cells
T2 construct: Myc-DDK; expressed in transfected cells; host or cells: HEK293T
T2 sequence (Q99835 28-787): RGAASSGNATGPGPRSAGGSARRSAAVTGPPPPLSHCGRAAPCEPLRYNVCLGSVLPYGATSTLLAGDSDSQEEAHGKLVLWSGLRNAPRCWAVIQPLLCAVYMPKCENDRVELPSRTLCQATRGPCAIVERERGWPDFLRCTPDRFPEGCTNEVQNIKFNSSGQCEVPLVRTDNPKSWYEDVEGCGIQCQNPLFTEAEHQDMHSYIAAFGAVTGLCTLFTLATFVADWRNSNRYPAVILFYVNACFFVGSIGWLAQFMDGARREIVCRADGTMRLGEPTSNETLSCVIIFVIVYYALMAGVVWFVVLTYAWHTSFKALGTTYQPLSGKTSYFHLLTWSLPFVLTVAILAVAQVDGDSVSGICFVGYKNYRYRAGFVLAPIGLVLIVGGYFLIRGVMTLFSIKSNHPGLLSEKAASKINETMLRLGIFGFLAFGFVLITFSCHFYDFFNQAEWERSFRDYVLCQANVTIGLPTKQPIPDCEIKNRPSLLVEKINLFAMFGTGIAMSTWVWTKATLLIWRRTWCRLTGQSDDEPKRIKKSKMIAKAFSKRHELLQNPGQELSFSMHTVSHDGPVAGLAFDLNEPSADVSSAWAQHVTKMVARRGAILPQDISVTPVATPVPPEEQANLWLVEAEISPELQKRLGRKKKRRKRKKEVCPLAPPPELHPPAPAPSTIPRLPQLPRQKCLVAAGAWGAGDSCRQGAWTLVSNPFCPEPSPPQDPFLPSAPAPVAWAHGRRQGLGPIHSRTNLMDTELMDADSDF
Experimental: as §2

[3] = system: primary MB cells from Ptch1^+/− mice; assay: Trypan blue growth count of primary MB cells from Ptch1+/− mice; assay type: cell-based, mouse; details: ex vivo cultures from Ptch1^+/− mice MBs
Experimental: as §1

Compound: COc1ccc(C=CC(=O)c2cc(OC)c(OC)cc2OC)cc1OC [Compound 12, 3-(3,4-dimethoxy-phenyl)-1-(2,4,5-trimethoxy-phenyl)-2-propen-1-one]
- Hh pathway activity in MB stem-like cells (Gli1, Gli2, Ptch1, Nanog, Oct4, cyclins D1 and D2, Pcna mRNAs) [1]: reduced Hh pathway activity
- inhibition of 22Rv1 cell proliferation [2]: higher activity than other Smo antagonists
- IC50 (murine Smo D477G; BC (5 nM) displacement, transiently transfected 293T cells): 56.7 µM
- inhibition of BC binding to mouse Smo D477G mutant (murine Smo D477G; HEK293T cells, various concentrations): significantly inhibited BC binding
- Fold shift murine Smo (murine Smo D477G; IC50 Smo D477G / IC50 Smo WT): 1.243
- IC50 (human Smo WT): 24.5 µM
- proliferation of primary MB cells [3]: significant inhibition of the proliferation
